According to publication PMC3726784, “Synthesis, Structure and Antibacterial Activity of Potent DNA Gyrase Inhibitors: N′-Benzoyl-3-(4-Bromophenyl)-1H-Pyrazole-5-Carbohydrazide Derivatives” (PLoS ONE, 2013):
In brackets after ≈: the same amount, converted by molar mass.

Legend:
[1] = system: Escherichia coli ATCC 35218; experiment: In vitro antibacterial assay (MIC, MTT colorimetric method); type: cell-based; settings: E. coli ATCC 35218, MH medium, 37°C, 24 h; for MIC: Escherichia coli, ATCC35218, read-out: Minimum inhibitory concentrations, E. coli
Method: (§1) The activities of synthesized compounds were tested against Bacillus subtilis ATCC 6633, Escherichia coli ATCC 35218, Pseudomonas aeruginosa ATCC 27853 and Staphylococcus aureus ATCC 6538 which may be causal agents of some serious infections in humans using MH medium (Mueller-Hinton medium: casein hydrolysate 17.5 g, soluble starch 1.5 g, beef extract 1000 mL). Also included are the activities of reference compounds kanamycin.
(§2) The antibacterial activity of the synthesized compounds was tested against B. subtilis, E. coli, P. aeruginosa and S. aureus using MH medium (Mueller-Hinton medium: casein hydrolysate 17.5 g, soluble starch 1.5 g, beef extract 1000 mL). The MICs (minimum inhibitory concentrations) of the test compounds were determined by a colorimetric method using the dye MTT (3-(4,5-dimethylth-iazol-2-yl)-2,5-diphenyl tetrazoliumbromide). A stock solution of the synthesized compound (100 µg/mL) in DMSO was prepared and graded quantities of the test compounds were incorporated in specified quantity of sterilized liquid MH medium. A specified quantity of the medium containing the compound was poured into microtitration plates. Suspension of the microorganism was prepared to contain approximately 10^5 cfu/mL and applied to microtitration plates with serially diluted compounds in DMSO to be tested and incubated at 37°C for 24 h. After the MICs were visually determined on each of the microtitration plates, 50 µL of PBS (phosphate buffered saline 0.01 mol/L, pH 7.4, Na2HPO4·12H2O 2.9 g, KH2PO4 0.2 g, NaCl 8.0 g, KCl 0.2 g, distilled water 1000 mL) containing 2 mg of MTT/mL was added to each well. Incubation was continued at room temperature for 4–5 h. The content of each well was removed, and 100 µL of isopropanol containing 5% 1 mol/L HCl was added to extract the dye. After 12 h of incubation at room temperature, the optical density (OD) was measured with a microplate reader at 550 nm.

[2] = system: Bacillus subtilis ATCC 6633; experiment: as above; type: cell-based; settings: B. subtilis ATCC 6633, MH medium, 37°C; for MIC: Bacillus subtilis, ATCC6633, 24 h, read-out: Minimum inhibitory concentrations, B. subtilis
Method: as §1, §2

[3] = system: Staphylococcus aureus ATCC 6538; experiment: as above; type: cell-based; settings: S. aureus ATCC 6538, MH medium, 37°C, 24 h; for MIC: Staphylococcus aureus, ATCC6538, read-out: Minimum inhibitory concentrations, S. aureus
Method: as §1, §2

[4] = system: Pseudomonas aeruginosa ATCC 27853; experiment: as above; type: cell-based; settings: P. aeruginosa ATCC 27853, MH medium, 37°C, 24 h; for MIC: Pseudomonas aeruginosa, ATCC27853, read-out: Minimum inhibitory concentrations, P.aeruginosa
Method: as §1, §2

S. aureus DNA gyrase = biological target: T1, S. aureus DNA gyrase (Staphylococcus aureus, UniProt P0A0K8); experiment: biochemical; settings: enzyme purified from S. aureus, supercoiling
T1 construct: purified by the F. Blanche [25] from a crude extract of S. aureus; endogenous in cells
Description: (§3) To elucidate the mechanism by which the pyrazole derivatives induce antibacterial activity, the inhibitory activities of selected compounds were examined against DNA gyrase isolated from B. subtilis and S. aureus.
The S. aureus DNA gyrase were purified by the F. Blanche from a crude extract of S. aureus and cultivated with medium B, which was composed of 10 g of polypeptone, 2 g of yeast extract, 8 g of Na2HPO4, 2 g of KH2PO4, 1.2 g of (NH4)2SO4, 0.2 g of MgSO4, 4 g of glucose perliter of distilled water. Supercoiling and decatenation were performed according to F. B lanche.

B. subtilis DNA gyrase = B. subtilis DNA gyrase (Bacillus subtilis, UniProt P05652); experiment: biochemical
Method: as §3
The B. subtilis DNA gyrase were purified by the methods of E. Orr.: Cells were suspended in an equal volume of 25 mM HEPES-KOH (pH 8.0)-100 mM KCl and stored frozen at −70°C. The frozen cell suspension was thawed and diluted with an equal volume of 25 mM HEPES-KOH (pH 8.0)-0.4 M sucrose-20 mM magnesium acetate-1 mM dithiothreitol-5 mM PMSF. All operations were performed at 0–4°C. Lysozyme was added to a final concentration, and the mixture was incubated for 2.5 h. One-third volume of 2 M KCl-1.5% Brij was added, and the incubation was continued for 15 min. The lysate was then centrifuged for 90 min intirotor. The supernatant was adjusted to a KCl concentration of 0.2 M by dilution with 25 mM HEPES-KOH (pH 8.0)-1 mM dithiothreitol-1mMEDTA-0.5 mM pmsf-10% ethylene glycol and applied to a column. The column was washed with starting buffer and eluted successively with buffer containing 20 mM ATP-25 mM magnesium acetate-0.2 M KCI, buffer (2 M KCI), and 5 M urea in buffer (0.2 M KCl).Protein-containing fractions were dialyzed against buffer (0.05 MKCI). Supercoiling and decatenation were carried out by the F. Blanche method.

T1 sequence (P0A0K8 whole entry): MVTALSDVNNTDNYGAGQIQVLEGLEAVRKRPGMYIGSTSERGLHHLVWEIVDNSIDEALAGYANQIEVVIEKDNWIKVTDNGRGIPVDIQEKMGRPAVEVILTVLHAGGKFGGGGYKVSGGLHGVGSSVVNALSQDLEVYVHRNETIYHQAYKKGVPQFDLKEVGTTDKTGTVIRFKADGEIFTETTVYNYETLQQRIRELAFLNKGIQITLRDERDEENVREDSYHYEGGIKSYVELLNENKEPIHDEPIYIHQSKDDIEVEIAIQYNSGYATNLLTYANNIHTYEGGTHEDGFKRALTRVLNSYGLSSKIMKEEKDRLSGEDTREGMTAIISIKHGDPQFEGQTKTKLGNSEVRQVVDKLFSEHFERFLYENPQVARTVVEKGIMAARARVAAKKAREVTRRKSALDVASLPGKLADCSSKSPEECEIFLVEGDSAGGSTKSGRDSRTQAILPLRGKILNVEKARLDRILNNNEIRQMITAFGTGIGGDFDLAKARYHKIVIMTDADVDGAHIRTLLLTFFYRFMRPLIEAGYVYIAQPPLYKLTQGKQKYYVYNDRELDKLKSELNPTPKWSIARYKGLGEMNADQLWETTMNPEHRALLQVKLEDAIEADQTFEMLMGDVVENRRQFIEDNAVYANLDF
T1 sequence (P20831 whole entry partner): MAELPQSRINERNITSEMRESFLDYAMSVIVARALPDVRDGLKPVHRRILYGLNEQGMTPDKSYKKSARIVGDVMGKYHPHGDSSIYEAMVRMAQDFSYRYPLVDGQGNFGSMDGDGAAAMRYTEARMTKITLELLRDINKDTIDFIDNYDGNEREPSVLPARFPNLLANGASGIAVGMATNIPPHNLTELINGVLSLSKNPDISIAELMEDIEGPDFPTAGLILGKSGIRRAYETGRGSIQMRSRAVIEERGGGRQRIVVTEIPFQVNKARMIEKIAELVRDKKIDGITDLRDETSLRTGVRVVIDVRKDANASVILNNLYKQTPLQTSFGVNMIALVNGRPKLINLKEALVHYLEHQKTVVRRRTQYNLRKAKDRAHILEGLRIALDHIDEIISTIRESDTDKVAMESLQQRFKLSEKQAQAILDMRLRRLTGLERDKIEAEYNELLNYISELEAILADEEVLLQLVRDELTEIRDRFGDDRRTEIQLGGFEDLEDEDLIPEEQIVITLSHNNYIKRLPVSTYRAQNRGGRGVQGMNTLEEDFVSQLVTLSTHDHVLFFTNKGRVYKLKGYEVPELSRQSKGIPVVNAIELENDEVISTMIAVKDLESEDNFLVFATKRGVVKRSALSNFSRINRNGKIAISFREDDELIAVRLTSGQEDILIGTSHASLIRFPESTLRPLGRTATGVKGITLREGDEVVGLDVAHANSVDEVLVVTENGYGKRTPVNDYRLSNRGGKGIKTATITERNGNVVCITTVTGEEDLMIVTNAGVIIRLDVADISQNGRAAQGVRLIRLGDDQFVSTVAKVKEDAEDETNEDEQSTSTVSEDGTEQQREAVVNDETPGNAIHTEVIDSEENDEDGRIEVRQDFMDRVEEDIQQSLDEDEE
Chain of B. subtilis DNA gyrase (P05652 whole entry): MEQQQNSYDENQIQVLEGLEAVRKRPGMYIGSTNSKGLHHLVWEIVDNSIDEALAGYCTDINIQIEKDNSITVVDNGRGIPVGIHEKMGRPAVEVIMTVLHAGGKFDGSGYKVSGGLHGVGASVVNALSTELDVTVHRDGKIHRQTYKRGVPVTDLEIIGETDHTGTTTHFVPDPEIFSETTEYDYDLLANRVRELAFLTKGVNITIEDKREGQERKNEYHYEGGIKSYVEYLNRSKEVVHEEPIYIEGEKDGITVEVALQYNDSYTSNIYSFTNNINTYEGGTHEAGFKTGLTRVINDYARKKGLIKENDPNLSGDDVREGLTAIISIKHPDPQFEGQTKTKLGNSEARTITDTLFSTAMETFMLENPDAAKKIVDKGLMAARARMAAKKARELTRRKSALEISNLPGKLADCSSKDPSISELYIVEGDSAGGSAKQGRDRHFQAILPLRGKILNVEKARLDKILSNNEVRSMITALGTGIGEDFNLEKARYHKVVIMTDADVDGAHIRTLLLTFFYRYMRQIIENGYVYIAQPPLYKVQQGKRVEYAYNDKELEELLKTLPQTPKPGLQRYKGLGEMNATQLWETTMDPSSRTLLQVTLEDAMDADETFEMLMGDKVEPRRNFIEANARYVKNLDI
Chain of B. subtilis DNA gyrase (P05653 whole entry, further chain): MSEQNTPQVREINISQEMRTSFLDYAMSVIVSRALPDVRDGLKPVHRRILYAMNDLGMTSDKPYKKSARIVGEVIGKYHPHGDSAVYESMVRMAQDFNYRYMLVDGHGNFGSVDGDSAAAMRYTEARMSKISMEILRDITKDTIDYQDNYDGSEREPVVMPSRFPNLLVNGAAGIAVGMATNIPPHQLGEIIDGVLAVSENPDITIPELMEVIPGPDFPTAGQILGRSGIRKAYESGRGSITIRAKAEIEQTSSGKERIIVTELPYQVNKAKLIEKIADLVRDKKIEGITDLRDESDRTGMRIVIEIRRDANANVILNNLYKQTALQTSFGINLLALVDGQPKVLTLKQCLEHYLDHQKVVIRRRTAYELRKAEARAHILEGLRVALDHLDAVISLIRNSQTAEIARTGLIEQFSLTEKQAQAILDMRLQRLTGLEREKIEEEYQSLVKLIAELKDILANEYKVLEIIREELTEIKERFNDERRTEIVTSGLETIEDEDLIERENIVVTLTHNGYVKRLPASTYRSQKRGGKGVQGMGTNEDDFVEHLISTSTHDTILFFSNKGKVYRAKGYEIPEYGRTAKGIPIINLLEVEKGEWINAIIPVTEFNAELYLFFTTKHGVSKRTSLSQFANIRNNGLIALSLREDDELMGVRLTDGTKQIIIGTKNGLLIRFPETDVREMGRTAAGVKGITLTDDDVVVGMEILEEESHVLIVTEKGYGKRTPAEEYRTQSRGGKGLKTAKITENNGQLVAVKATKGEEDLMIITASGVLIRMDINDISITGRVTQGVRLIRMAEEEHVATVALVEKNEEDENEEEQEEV

Molecule | melting point | MIC [1] | MIC [2] | MIC [3] | MIC [4] | Minimum inhibitory concentrations, E. coli [1] | Minimum inhibitory concentrations, B. subtilis ([2]; 24 h) | Minimum inhibitory concentrations, S. aureus [3] | Minimum inhibitory concentrations, P.aeruginosa [4] | IC50 (S. aureus DNA gyrase) | IC50 (B. subtilis DNA gyrase)
O=C(NNC(=O)c1ccccc1F)c1cc(-c2ccc(Br)cc2)n[nH]1 [3m, 3-(4-Bromophenyl)-N'-(2-fluorobenzoyl)-1H-pyrazole-5-carbohydrazide] | 297 to 298 °C | > 50 µg/mL | 25 µg/mL (≈ 62 µM) | 22.1 µg/mL (≈ 54.8 µM) | > 50 µg/mL | – | – | – | – | – | –
O=C(NNC(=O)c1cc(-c2ccc(Br)cc2)n[nH]1)c1ccc(Br)cc1 [3c, N'-(4-Bromobenzoyl)-3-(4-bromophenyl)-1H-pyrazole-5-carbohydrazide] | 297 to 298 °C | > 50 µg/mL | 10.2 µg/mL (≈ 22 µM) | 13.8 µg/mL (≈ 29.7 µM) | 50 µg/mL (≈ 108 µM) | – | – | – | – | – | –
O=C(NNC(=O)c1cc(-c2ccc(Br)cc2)n[nH]1)c1ccc(F)cc1 [3a, 3-(4-Bromophenyl)-N'-(4-fluorobenzoyl)-1H-pyrazole-5-carbohydrazide] | 284 to 287 °C | > 50 µg/mL | 12.5 µg/mL (≈ 31.1 µM) | 15 µg/mL (≈ 37.2 µM) | 50 µg/mL (≈ 124 µM) | – | – | – | – | – | –
O=C(NNC(=O)c1cc(-c2ccc(Br)cc2)n[nH]1)c1cccc(Cl)c1 [3h, 3-(4-Bromophenyl)-N'-(3-chlorobenzoyl)-1H-pyrazole-5-carbohydrazide] | 246 to 248 °C | > 50 µg/mL | 6.25 µg/mL (≈ 14.9 µM) | 12.6 µg/mL (≈ 29.9 µM) | 50 µg/mL (≈ 119 µM) | – | – | – | – | – | –
Penicillin [reference compound] | – | – | – | – | – | 6.25 µg/mL | 1.56 µg/mL | 1.56 µg/mL | 6.25 µg/mL | – | –
COc1cccc(C(=O)NNC(=O)c2cc(-c3ccc(Br)cc3)n[nH]2)c1 [3k, 3-(4-Bromophenyl)-N'-(3-methoxybenzoyl)-1H-pyrazole-5-carbohydrazide] | 251 to 253 °C | 50 µg/mL (≈ 120 µM) | – | 0.78 µg/mL (≈ 1.88 µM) | 12.5 µg/mL (≈ 30.1 µM) | – | – | – | – | 361 nM | 0.602 µM
O=C(NNC(=O)c1cc(-c2ccc(Br)cc2)n[nH]1)c1cccc(F)c1 [3g, 3-(4-Bromophenyl)-N'-(3-fluorobenzoyl)-1H-pyrazole-5-carbohydrazide] | 278 to 280 °C | > 50 µg/mL | 25 µg/mL (≈ 62 µM) | 13 µg/mL (≈ 32.2 µM) | 50 µg/mL (≈ 124 µM) | – | – | – | – | – | –
Cc1ccc(C(=O)NNC(=O)c2cc(-c3ccc(Br)cc3)n[nH]2)cc1 [3d, 3-(4-Bromophenyl)-N'-(4-methylbenzoyl)-1H-pyrazole-5-carbohydrazide] | 270 to 272 °C | 50 µg/mL (≈ 125 µM) | – | 3.66 µg/mL (≈ 9.17 µM) | 12.5 µg/mL (≈ 31.3 µM) | – | – | – | – | 3760 nM | 6.51 µM
O=C(NNC(=O)c1cc(-c2cccc(Br)c2)n[nH]1)c1ccc(Br)cc1 [3i, N'-(4-Bromobenzoyl)-3-(3-bromophenyl)-1H-pyrazole-5-carbohydrazide] | 229 to 231 °C | > 50 µg/mL | 12.6 µg/mL (≈ 27.1 µM) | 12.1 µg/mL (≈ 26.1 µM) | 50 µg/mL (≈ 108 µM) | – | – | – | – | – | –
Cc1cccc(C(=O)NNC(=O)c2cc(-c3ccc(Br)cc3)n[nH]2)c1 [3j, 3-(4-Bromophenyl)-N'-(3-methylbenzoyl)-1H-pyrazole-5-carbohydrazide] | 287 to 288 °C | 50 µg/mL (≈ 125 µM) | – | 1.12 µg/mL (≈ 2.81 µM) | 12.5 µg/mL (≈ 31.3 µM) | – | – | – | – | 326 nM | 8.14 µM
O=C(NNC(=O)c1cc(-c2ccccc2Br)n[nH]1)c1ccc(Br)cc1 [3o, N'-(4-Bromobenzoyl)-3-(2-bromophenyl)-1H-pyrazole-5-carbohydrazide] | 281 to 283 °C | > 50 µg/mL | 23.1 µg/mL (≈ 49.8 µM) | 21 µg/mL (≈ 45.2 µM) | > 50 µg/mL | – | – | – | – | – | –
O=C(NNC(=O)c1cc(-c2ccc(Br)cc2)n[nH]1)c1cccc([N+](=O)[O-])c1 [3l, 3-(4-Bromophenyl)-N'-(3-nitrobenzoyl)-1H-pyrazole-5-carbohydrazide] | 275 to 276 °C | > 50 µg/mL | 10.8 µg/mL (≈ 25.1 µM) | 10.8 µg/mL (≈ 25.1 µM) | 50 µg/mL (≈ 116 µM) | – | – | – | – | – | –
O=C(NNC(=O)c1cc(-c2ccc(Br)cc2)n[nH]1)c1ccc(Cl)cc1 [3b, 3-(4-Bromophenyl)-N'-(4-chlorobenzoyl)-1H-pyrazole-5-carbohydrazide] | 280 to 283 °C | > 50 µg/mL | 17.1 µg/mL (≈ 40.8 µM) | 15 µg/mL (≈ 35.7 µM) | 50 µg/mL (≈ 119 µM) | – | – | – | – | – | –
O=C(NNC(=O)c1ccccc1Cl)c1cc(-c2ccc(Br)cc2)n[nH]1 [3n, 3-(4-Bromophenyl)-N'-(2-chlorobenzoyl)-1H-pyrazole-5-carbohydrazide] | 280 to 281 °C | > 50 µg/mL | 12.2 µg/mL (≈ 29.2 µM) | 17 µg/mL (≈ 40.4 µM) | > 50 µg/mL | – | – | – | – | – | –
O=C(NNC(=O)c1cc(-c2ccc(Br)cc2)n[nH]1)c1ccc([N+](=O)[O-])cc1 [3f, 3-(4-Bromophenyl)-N'-(4-nitrobenzoyl)-1H-pyrazole-5-carbohydrazide] | 255 to 257 °C | > 50 µg/mL | 25 µg/mL (≈ 58.1 µM) | 18 µg/mL (≈ 41.9 µM) | > 50 µg/mL | – | – | – | – | – | –
O=C(NNC(=O)c1ccccc1[N+](=O)[O-])c1cc(-c2ccc(Br)cc2)n[nH]1 [3r, 3-(4-Bromophenyl)-N'-(2-nitrobenzoyl)-1H-pyrazole-5-carbohydrazide] | 266 to 267 °C | > 50 µg/mL | 50 µg/mL (≈ 116 µM) | 25 µg/mL (≈ 58.1 µM) | > 50 µg/mL | – | – | – | – | – | –
COc1ccccc1C(=O)NNC(=O)c1cc(-c2ccc(Br)cc2)n[nH]1 [3q, 3-(4-Bromophenyl)-N'-(2-methoxybenzoyl)-1H-pyrazole-5-carbohydrazide] | 287 to 290 °C | > 50 µg/mL | 20.6 µg/mL (≈ 49.6 µM) | 18.7 µg/mL (≈ 45.1 µM) | > 50 µg/mL | – | – | – | – | – | –
